# Measurements from patent US20210045385A1, “PYRIDAZINONE-SUBSTITUTED KETOXIMES AS HERBICIDES” (FMC Corporation, priority 2018, published 2021).
# Tests used:
# [1] = test system: Italian ryegrass (Lolium multiflorum); assay: Test A preemergence, visual plant response rating; format: in vivo
# Summary of the method: (§1)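 Ratings 0–100 (100 = complete control), visual, vs untreated controls at ~10 days. Application pre- or postemergence; solvent mixture with surfactant; loam/sand medium.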
# [2] = test system: barnyardgrass (Echinochloa crus-galli); assay: Test A preemergence, visual plant response rating; format: in vivo
# Summary of the method: as §1
# [3] = test system: foxtail, giant (giant foxtail, Setaria faberii); assay: Test A preemergence, visual plant response rating; format: in vivo
# Summary of the method: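 Formulated in a non-phytotoxic solvent mixture including surfactant, each test chemical was sprayed onto the soil surface after sowing, or onto seedlings 2 to 10 cm high. Roughly 10 days later, plants were compared with untreated controls and rated for injury from 0 (no effect) to 100 (complete control).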
# kochia (Kochia scoparia) [4] = assay: Test A preemergence, visual plant response rating; format: in vivo
# Summary of the method: as §1
# [5] = test system: pigweed (Amaranthus retroflexus); assay: Test A preemergence, visual plant response rating; format: in vivo
# Summary of the method: as §1
# [6] = test system: Italian ryegrass (Lolium multiflorum); assay: Test A postemergence, visual plant response rating; format: in vivo
# Summary of the method: as §1
# [7] = test system: barnyardgrass (Echinochloa crus-galli); assay: Test A postemergence, visual plant response rating; format: in vivo
# Summary of the method: as §1
# [8] = test system: blackgrass (Alopecurus myosuroides); assay: Test A postemergence, visual plant response rating; format: in vivo
# Summary of the method: as §1
# corn (Zea mays) = assay: Test A postemergence, visual plant response rating; format: in vivo
# Summary of the method: as §1
# [9] = test system: foxtail, giant (giant foxtail, Setaria faberii); assay: Test A postemergence, visual plant response rating; format: in vivo
# Summary of the method: as §1
# [10] = test system: galium (catchweed bedstraw, Galium aparine); assay: Test A postemergence, visual plant response rating; format: in vivo
# Summary of the method: as §1
# kochia (Kochia scoparia) [11] = assay: Test A postemergence, visual plant response rating; format: in vivo
# Summary of the method: as §1
# [12] = test system: pigweed (Amaranthus retroflexus); assay: Test A postemergence, visual plant response rating; format: in vivo
# Summary of the method: as §1
# [13] = test system: ragweed (common ragweed, Ambrosia elatior); assay: Test A postemergence, visual plant response rating; format: in vivo
# Summary of the method: as §1
# [14] = test system: wheat (Triticum aestivum); assay: Test A postemergence, visual plant response rating; format: in vivo
# Summary of the method: as §1
# [15] = test system: barnyardgrass (Echinochloa crus-galli); assay: Test B flooded paddy test, visual plant response rating; format: in vivo; settings: 250 g ai/ha, Flood, applied to paddy water, 2-leaf stage, evaluated after 13 to 15 days
# Summary of the method: (§2)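 Greenhouse paddy conditions applied: two-leaf plants, a 3 cm flood above the soil surface maintained throughout, and compound added to the water rather than the foliage. Plants were judged visually against controls at 13 to 15 days.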
# [16] = test system: ducksalad (Heteranhera limosa); assay: as above; format: in vivo; settings: 250 g ai/ha, Flood, applied to paddy water, 2-leaf stage, evaluated after 13 to 15 days
# Summary of the method: as §2
# rice (Oryza sativa) = assay: as above; format: in vivo; settings: 250 g ai/ha, Flood, applied to paddy water, 2-leaf stage, evaluated after 13 to 15 days
# Summary of the method: as §2
# [17] = test system: sedge, umbrella (small-flower umbrella sedge, Cyperus difformis); assay: as above; format: in vivo; settings: 250 g ai/ha, Flood, applied to paddy water, 2-leaf stage, evaluated after 13 to 15 days
# Summary of the method: as §2
# [18] = 125 g ai/ha, preemergence, 0 to 100 scale, 0 no effect, 100 complete control
# [19] = 500 g ai/ha Preemergence, approx. 10 days
# [20] = 500 g ai/ha, postemergence, 0 is no effect, 100 is complete control
# [21] = Postemergence, 125 g ai/ha, 0 to 100 scale (0 no effect, 100 complete control)
smiles,measurement,setting,value
"CO/N=C(\c1c(O)c(C)nn(C)c1=O)c1cc(Br)cc2ccccc12 [Compound 91, 4-[(Z)-(3-bromo-1-naphthalenyl)(methoxyimino)methyl]-5-hydroxy-2,6-dimethyl-3(2H)-pyridazinone]","Ryegrass, Italian plant response rating",[1]; [18],80
same,"Ryegrass, Italian plant response rating (0 to 100 scale)",[1]; [19],100
same,Barnyardgrass plant response rating,[2]; [18],100
same,Barnyardgrass plant response rating (0 to 100 scale),[2]; [19],100
same,"Foxtail, Giant plant response rating",[3]; [18],100
same,"Foxtail, Giant plant response rating (0 to 100 scale)",[3]; [19],100
same,Kochia plant response rating,kochia (Kochia scoparia) [4]; [18],60
same,Kochia plant response rating (0 to 100 scale),kochia (Kochia scoparia) [4]; [19],60
same,Pigweed plant response rating,[5]; [18],100
same,Pigweed plant response rating (0 to 100 scale),[5]; [19],100
same,"Ryegrass, Italian plant response rating (0 to 100 scale)",[6]; [20],100
same,"Ryegrass, Italian plant response rating",[6]; [21],100
same,Barnyardgrass plant response rating (0 to 100 scale),[7]; [20],80
same,Barnyardgrass plant response rating,[7]; [21],80
same,Blackgrass plant response rating (0 to 100 scale),[8]; [20],100
same,Blackgrass plant response rating,[8]; [21],100
same,Corn plant response rating (0 to 100 scale),corn (Zea mays); [20],70
same,Corn plant response rating,corn (Zea mays); [21],30
same,"Foxtail, Giant plant response rating (0 to 100 scale)",[9]; [20],90
same,"Foxtail, Giant plant response rating",[9]; [21],80
same,Galium plant response rating (0 to 100 scale),[10]; [20],100
same,Galium plant response rating,[10]; [21],100
same,Kochia plant response rating (0 to 100 scale),kochia (Kochia scoparia) [11]; [20],80
same,Kochia plant response rating,kochia (Kochia scoparia) [11]; [21],60
same,Pigweed plant response rating (0 to 100 scale),[12]; [20],90
same,Pigweed plant response rating,[12]; [21],80
same,Ragweed plant response rating (0 to 100 scale),[13]; [20],100
same,Ragweed plant response rating,[13]; [21],100
same,Wheat plant response rating (0 to 100 scale),[14]; [20],80
same,Wheat plant response rating,[14]; [21],50
same,"Plant response rating, Barnyardgrass (0 to 100 scale, 0 is no effect, 100 is complete control)",[15],65
same,"Plant response rating, Ducksalad (0 to 100 scale, 0 is no effect, 100 is complete control)",[16],60
same,"Plant response rating, Rice (0 to 100 scale, 0 is no effect, 100 is complete control)",rice (Oryza sativa),20
same,"Plant response rating, Sedge, Umbrella (0 to 100 scale, 0 is no effect, 100 is complete control)",[17],60
same,melting point,,129 to 133 °C
